Data as given in PMC12541610 (Acta Pharmaceutica Sinica. B, 2025).

Target: ATP synthase F1 subunit alpha (ATP5A1) (Mus musculus, UniProt Q03265)
Assay: intrinsic fluorescence titration of purified protein
Assay type: binding

Chain of ATP synthase F1 subunit alpha (ATP5A1) (Q03265 whole entry): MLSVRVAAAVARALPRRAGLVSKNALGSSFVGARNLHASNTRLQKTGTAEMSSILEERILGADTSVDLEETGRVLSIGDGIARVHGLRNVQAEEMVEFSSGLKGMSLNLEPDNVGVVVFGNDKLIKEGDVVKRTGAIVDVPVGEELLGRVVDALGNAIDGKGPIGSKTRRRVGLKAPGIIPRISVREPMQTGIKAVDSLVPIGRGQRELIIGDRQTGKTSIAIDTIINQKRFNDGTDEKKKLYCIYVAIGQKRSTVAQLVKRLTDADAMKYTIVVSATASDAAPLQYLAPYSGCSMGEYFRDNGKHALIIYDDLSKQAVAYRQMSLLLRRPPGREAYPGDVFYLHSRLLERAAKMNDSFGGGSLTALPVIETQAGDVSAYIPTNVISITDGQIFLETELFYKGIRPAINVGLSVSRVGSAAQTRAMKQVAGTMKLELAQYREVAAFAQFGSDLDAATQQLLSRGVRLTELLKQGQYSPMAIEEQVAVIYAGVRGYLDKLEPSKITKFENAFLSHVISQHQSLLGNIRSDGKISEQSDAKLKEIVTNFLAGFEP

`C=C(C)[C@@H]1CCC(C)=C[C@H]1c1c(O)cc(CCCCC)cc1O` [Cannabidiol] showed a Kd of 4.9 ± 1.2 µM.
